Results published in patent publication US6559173B1, “3-(heteroarylamino)methylene-1,3-dihydro-2H-indol-2-ones as kinase inhibitors” (Allergan, Inc., priority 2001, dated 2003).

Tests used:
[1] = tested on: VEGF induced increases in intracellular calcium levels in HUVEC (human umbilical vein endothelial cells); assay: VEGF Stimulated Ca++ signal assay (FLIPR); assay type: cell-based; conditions: VEGF 5 ng/mL; for IC50: 0.01 to 10.0 μM
Protocol: VEGF Stimulated Ca^++ Signal in vitro
Automated FLIPR (Fluorometric Imaging Plate Reader) technology was used to screen for inhibitors of VEGF induced increases in intracellular calcium levels in fluorescent dye loaded endothelial cells. HUVEC (human umbilical vein endothelial cells) (Clonetics) were seeded in 96-well fibronectin coated black-walled plates overnight @ 37° C./5%CO2. Cells were loaded with calcium indicator Fluo-4 for 45 minutes at 37° C. Cells were washed 4 times (Original Cell Wash, Labsystems) to remove extracellular dye. Test compounds were reconstituted in 100% DMSO and added to the cells to give a final DMSO concentration of 0.1%. For screening, cells were pre-incubated with test agents for 30 minutes, at a single concentration (10 μM) or at concentrations ranging from 0.01 to 10.0 μM followed by VEGF stimulation (5 ng/mL). Changes in fluorescence at 516 nm were measured simultaneously in all 96 wells using a cooled CCD camera. Data were generated by determining max-min fluorescence levels for unstimulated, stimulated, and drug treated samples. IC50 values for test compounds were calculated from % inhibition of VEGF stimulated responses in the absence of inhibitor.

[2] = target: T1, cytoplasmic domain of the human VEGF receptor (VEGFR-2) (Homo sapiens, UniProt P35968); assay: KDR Assay; assay type: biochemical; conditions: His-VEGFR-2, 3.6 μM ATP, poly-Glu-Tyr (4:1)
T1 construct: The cytoplasmic domain of the human VEGF receptor (VEGFR-2) was expressed as a Histidine-tagged fusion protein; His tag (Histidine-tagged fusion); made in house; host or cells: insect cells (engineered baculovirus)
T1 sequence (P35968 786-1356 limits assumed): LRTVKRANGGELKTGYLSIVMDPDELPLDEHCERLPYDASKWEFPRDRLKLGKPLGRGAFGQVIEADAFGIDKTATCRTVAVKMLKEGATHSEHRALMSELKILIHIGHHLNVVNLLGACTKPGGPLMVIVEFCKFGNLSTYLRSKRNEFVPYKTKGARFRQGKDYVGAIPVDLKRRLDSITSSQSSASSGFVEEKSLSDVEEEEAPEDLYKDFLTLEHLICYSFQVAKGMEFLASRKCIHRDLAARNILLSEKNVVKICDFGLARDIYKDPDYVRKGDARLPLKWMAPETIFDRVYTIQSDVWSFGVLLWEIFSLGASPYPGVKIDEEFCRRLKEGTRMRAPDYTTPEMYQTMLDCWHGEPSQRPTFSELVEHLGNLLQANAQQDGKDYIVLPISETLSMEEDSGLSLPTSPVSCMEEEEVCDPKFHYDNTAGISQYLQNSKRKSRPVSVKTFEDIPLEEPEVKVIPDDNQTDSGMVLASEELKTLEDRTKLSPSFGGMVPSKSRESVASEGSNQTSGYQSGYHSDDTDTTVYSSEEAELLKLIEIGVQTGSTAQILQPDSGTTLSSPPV
Protocol: The cytoplasmic domain of the human VEGF receptor (VEGFR-2) was expressed as a Histidine-tagged fusion protein following infection of insect cells using an engineered baculovirus. His-VEGFR-2 was purified to homogeneity, as determined by SDS-PAGE, using nickel resin chromatography. Kinase assays were performed in 96 well microtiter plates that were coated overnight with 30 μg of poly-Glu-Tyr (4:1) in 10 mM Phosphate Buffered Saline (PBS), pH 7.2-7.4. The plates were incubated with 1% BSA and then washed four times with PBS prior to starting the reaction. Reactions were carried out in 120 μL reaction volumes containing 3.6 μM ATP in kinase buffer (50 mM Hepes buffer pH 7.4, 20 mM MgCl2, 0.1 mM MnCl2 and 0.2 mM Na3VO4). Test compounds were reconstituted in 100% DMSO and added to the reaction to give a final DMSO concentration of 5%. Reactions were initiated by the addition 0.5 ng of purified protein. Following a ten minute incubation at 25° C., the reactions were washed four times with PBS containing 0.05% Tween-20. 100 μl of a monoclonal anti-phosphotyrosine antibody-peroxidase conjugate was diluted 1:10000 in PBS-Tween-20 and added to the wells for 30 minutes. Following four washes with PBS-Tween-20, 100 μl of 0-Phenylenediamine Dihydrochloride in Phosphate-citrate buffer, containing urea hydrogen peroxide, was added to the wells for 7 minutes as a colorimetric substrate for the peroxidase. The reaction was terminated by the addition of 100 μl of 2.5N H2SO4 to each well and read using a microplate ELISA reader set at 492 nm. IC50 values for compound inhibition were calculated directly from graphs of optical density (arbitrary units) versus compound concentration following subtraction of blank values.

[3] = Homo sapiens, 10 μM, 30 min pre-incubation

IC50 [2] [µM]	Compound	IC50 [1] [µM]	inhibition at 10 µM [1, 3] [%]	IC50 ([1]; Homo sapiens) [µM]	VEGF Stimulated Ca++ signal assay % inhibition @10 μM ([1]; 10 μM, 30 min pre-incubation) [%]
0.18	COc1ccc(Cc2cc(NC=C3C(=O)Nc4ccccc43)n[nH]2)cc1 [Example 5, 3-{[5-(4-Methoxy-benzyl)-1H-pyrazol-3-ylamino]-methylene}-1,3-dihydro-indol-2-one]	0.5	98	≤ 1	
0.84	Cc1ccc(-c2cc(NC=C3C(=O)Nc4ccccc43)n[nH]2)cc1 [Example 3, 3-[(5-P-Tolyl-1H-pyrazol-3-ylamino)-methylene]-1,3-dihydro-indol-2-one]		74	2.44	
5.78	CC(C)(C)c1cc(NC=C2C(=O)Nc3ccccc32)n[nH]1 [Example 22, 3-[(5-tert-Butyl-1H-pyrazol-3-ylamino)-methylene]-1,3-dihydro-indol-2-one]		98.3	6.09	
1.21	O=C1Nc2cc(F)ccc2C1=CNc1cc(-c2ccccc2)[nH]n1 [Example 51, 6-Fluoro-3-[(5-phenyl-1H-pyrazol-3-ylamino)-methylene]-1,3-dihydro-indol-2-one]			2.32	
0.37	Cc1cc(NC=C2C(=O)Nc3ccccc32)n[nH]1 [Example 23, 3-[(5-Methyl-1H-pyrazol-3-ylamino)-methylene]-1,3-dihydro-indol-2-one]	0.9	94.7	≤ 1	
	O=C1Nc2ccccc2C1=CNc1n[nH]cc1C(=O)O [Example 19, 3-[(2-Oxo-1,2-dihydro-indol-3-ylidenemethyl)-amino]-1H-pyrazole-4-carboxylic acid]		-0.89		
2.32	O=C1Nc2ccccc2C1=CNc1ccon1 [Example 43, 3-(Isoxazol-3-ylaminomethylene)-1,3-dihydro-indol-2-one]		62.4	7.56	
1.43	COc1cccc(-c2cc(NC=C3C(=O)Nc4ccccc43)[nH]n2)c1 [Example 33, 3-{[5-(3-Methoxy-phenyl)-2H-pyrazol-3-ylamino]-methylene}-1,3-dihydro-indol-2-one]		92.9	4.4	
0.58	O=C1Nc2ccccc2C1=CNc1cc(-c2ccccc2)[nH]n1 [Example 2, 3-[(5-Phenyl-H-pyrazol-3-ylamino)-methylene]-1,3-dihydro-indol-2-one]		90.5	1.33	
	CSc1[nH]nc(NC=C2C(=O)Nc3ccccc32)c1C#N [Example 18, 5-Methylsulfanyl-3-[(2-oxo-1,2-dihydro-indol-3-ylidenemethyl)-amino]-1H-pyrazole-4-carbonitrile]		14.1		
	O=C1Nc2ccccc2C1=CNc1cc(-c2cc(OCc3ccccc3)cc(OCc3ccccc3)c2)n[nH]1 [Example 31, 3-{[5-(3,5-Bis-benzyloxy-phenyl)-2H-pyrazol-3-ylamino]-methylene}-1,3-dihydro-indol-2-one]		-12.9		
	COC(=O)c1ccc(-c2cc(NC=C3C(=O)Nc4ccccc43)n[nH]2)cc1 [Example 24, 4-{5-[(2-Oxo-1,2-dihydro-indol-3-ylidenemethyl)-amino]-2H-pyrazol-3-}-benzoic acid methyl ester]		56.9	≥ 10	
	O=C1Nc2ccccc2C1=CNc1n[nH]cc1Br [Example 21, 3-[(4-Bromo-1H-pyrazol-3-ylamino)-methylene]-1,3-dihydro-indol-2-one]		32.1		
	Cc1ccc(-c2cc(NC=C3C(=O)Nc4ccccc43)[nH]n2)c(C)c1 [Example 34, 3-{[5-(2,4-Dimethyl-phenyl)2H-pyrazol-3-ylamino]-methylene}-1,3-dihydro-indol-2-one]		58.8	7.64	
0.97	Cc1cccc2c1C(=CNc1cc(-c3ccccc3)[nH]n1)C(=O)N2 [Example 8, 4-Methyl-3-[(5-phenyl-1H-pyrazol-3-ylamino)-methylene]-1,3-dihydro-indol-2-one]		64.5	3.17	
	Cc1cc(C)c2c(NC=C3C(=O)Nc4ccccc43)n[nH]c2n1 [Example 25, 3-[(4,6-Dimethyl-1H-pyrazolo[3,4-b]pyridin-3-ylamino)-methylene]-1,3-dihydro-indol-2-one]		15.1		

IC50 [2] [µM]	Compound	IC50 [1] [µM]	inhibition at 10 µM [1, 3] [%]	IC50 ([1]; Homo sapiens) [µM]	VEGF Stimulated Ca++ signal assay % inhibition @10 μM ([1]; 10 μM, 30 min pre-incubation) [%]
	CCOC(=O)c1c[nH]nc1NC=C1C(=O)Nc2ccccc21 [Example 17, 3-[(2-Oxo-1,2-dihydro-indol-3-ylidenemethyl)-amino]-1H-pyrazole-4-carboxylic acid ethyl ester]		27.2		
	O=C1Nc2ccc(Cl)cc2C1=CNc1n[nH]c(-c2ccccc2)c1Br [Example 13, 3-[(4-Bromo-5-phenyl-1H-pyrazol-3-ylamino)-methylene]-5chloro-1,3-dihydro-indol-2-one]		-19.1		
	Cc1cccc2c1C(=CNc1n[nH]c(-c3ccccc3)c1Br)C(=O)N2 [Example 12, 3-[(4-Bromo-5-phenyl-1H-pyrazol-3-ylamino)-methylene]-4-methyl-1,3-dihydro-indol-2-one]		-12.9		
0.26	Cc1oc(C(C)(C)C)cc1-c1cc(NC=C2C(=O)Nc3ccccc32)[nH]n1 [Example 29, 3-{[5-(5-tert-Butyl-2-methyl-furan-3-yl)-2H-pyrazol-3-ylamino]-methylene}-1,3-dihydro-indol-2-one]	0.58	99.1	≤ 1	
0.98	Cc1noc(NC=C2C(=O)Nc3ccccc32)c1C [Example 45, 3-[(3,4-Dimethyl-isoxazol-5-ylamino)-methylene]-1,3-dihydro-indol-2-one]		84.9	2.55	
	O=C1Nc2ccccc2C1=CNc1n[nH]c(-c2ccccc2)c1Br [Example 11, 3-[(4-Bromo-5-phenyl-1H-pyrazol-3-ylamino)-methylene]-1,3-dihydro-indol-2-one]		23.4		
	N#Cc1c[nH]nc1NC=C1C(=O)Nc2ccccc21 [Example 20, 3-[(2-Oxo-1,2-dihydro-indol-3-ylidenemethyl)-amino]-1H-pyrazole-4-carbonitrile]		35.8		
	COc1ccc(-c2c(C)n[nH]c2NC=C2C(=O)Nc3ccccc32)cc1OC [Example 16, 3-{[4-(3,4-Dimethoxy-phenyl)-5-methyl-2H-pyrazol-3-ylamino]-methylene}-1,3-dihydro-indol-2-one]		-1.47		
	Cc1cccc(Cc2cc(NC=C3C(=O)Nc4ccccc43)[nH]n2)c1 [Example 39, 3-{[5-(3-Methyl-benzyl)-2H-pyrazol-3-ylamino]-methylene}-1,3-dihydro-indol-2-one]		-12.6		
	O=C1Nc2ccccc2C1=CNc1n[nH]c2cccc(F)c12 [Example 15, 3-[(4-Fluoro-1H-indazol-3-ylamino)-methylene]-1,3-dihydro-indol-2-one]		6.16		
	O=C1Nc2ccccc2C1=CNc1cc(Cc2ccccc2)n[nH]1 [Example 40, 3-[(5-Benzyl-2H-pyrazol-3-ylamino)-methylene]-1,3-dihydro-indol-2-one]		-0.03		
0.57	Cc1cc(NC=C2C(=O)Nc3cc(F)ccc32)n[nH]1 [Example 49, 6-Fluoro-3-[(5-methyl-1H-pyrazol-3-ylamino)-methylene]-1,3-dihydro-indol-2-one]				
	3-[(1-H-Pyrazol-3 ylamino)methylene]-1,3-dihydro-indol-2-one [Example 1]	3			92.8
	O=C1Nc2ccc(Cl)cc2C1=CNc1cc(-c2ccccc2)[nH]n1 [Example 14, 5-Chloro-3-[(5-phenyl-1H-pyrazol-3-ylamino)-methylene]-1,3-dihydro-indol-2-one]		27.4		
	COc1ccc(-c2cc(NC=C3C(=O)Nc4ccccc43)[nH]n2)cc1 [Example 30, 3-{[5-(4-Methoxy-phenyl)2H-pyrazol-3-ylamino]-methylene}-1,3-dihydro-indol-2-one]		12.3		
